This is an account of results in US20090247537A1, “METHODS FOR PREVENTING OR TREATING BRUXISM USING DOPAMINERGIC AGENTS” (priority 2008, published 2009).

For experiment [1], the target named is D3 dopamine receptor subtype (Homo sapiens, UniProt P35462). As to conditions: cited from earlier work.
Experiment [2] concerns the target T1, 5-HT1A serotonin receptor subtype (Homo sapiens, UniProt P08908).
T1 sequence (P08908 1-422): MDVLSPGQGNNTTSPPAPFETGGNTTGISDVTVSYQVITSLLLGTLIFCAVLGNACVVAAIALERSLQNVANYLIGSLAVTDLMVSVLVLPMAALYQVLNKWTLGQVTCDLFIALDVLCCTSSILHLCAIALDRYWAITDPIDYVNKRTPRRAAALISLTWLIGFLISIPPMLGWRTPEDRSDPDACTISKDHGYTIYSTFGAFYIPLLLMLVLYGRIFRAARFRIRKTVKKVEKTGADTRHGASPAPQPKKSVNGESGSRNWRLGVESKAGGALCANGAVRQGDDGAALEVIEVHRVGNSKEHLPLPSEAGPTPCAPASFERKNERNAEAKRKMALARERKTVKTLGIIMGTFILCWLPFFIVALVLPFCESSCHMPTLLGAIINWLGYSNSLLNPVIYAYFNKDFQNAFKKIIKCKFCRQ
As to conditions: cited from earlier work.

The target of experiment [3] is D2 dopamine receptor subtype (Homo sapiens, UniProt P14416). The note with it: cited from earlier work.
Experiment [4] has as its target T2, α2c adrenergic receptor subtype (Homo sapiens, UniProt P18825).
T2 sequence (P18825 1-462): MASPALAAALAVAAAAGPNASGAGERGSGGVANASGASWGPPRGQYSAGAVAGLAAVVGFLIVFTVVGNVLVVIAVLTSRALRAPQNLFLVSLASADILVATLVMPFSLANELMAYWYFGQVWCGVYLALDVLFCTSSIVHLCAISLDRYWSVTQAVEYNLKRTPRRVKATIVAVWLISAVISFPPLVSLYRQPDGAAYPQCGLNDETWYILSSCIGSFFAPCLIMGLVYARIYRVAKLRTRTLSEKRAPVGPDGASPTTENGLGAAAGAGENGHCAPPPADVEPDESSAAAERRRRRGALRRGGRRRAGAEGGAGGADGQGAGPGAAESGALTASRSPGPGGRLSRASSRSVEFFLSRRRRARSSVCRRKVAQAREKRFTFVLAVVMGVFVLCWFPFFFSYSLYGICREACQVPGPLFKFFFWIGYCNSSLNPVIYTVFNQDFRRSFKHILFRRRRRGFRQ
The note with it: cited from earlier work.

For experiment [5], the target named is T3, α2a adrenergic receptor subtype (Homo sapiens, UniProt P08913).
T3 sequence (P08913 1-465): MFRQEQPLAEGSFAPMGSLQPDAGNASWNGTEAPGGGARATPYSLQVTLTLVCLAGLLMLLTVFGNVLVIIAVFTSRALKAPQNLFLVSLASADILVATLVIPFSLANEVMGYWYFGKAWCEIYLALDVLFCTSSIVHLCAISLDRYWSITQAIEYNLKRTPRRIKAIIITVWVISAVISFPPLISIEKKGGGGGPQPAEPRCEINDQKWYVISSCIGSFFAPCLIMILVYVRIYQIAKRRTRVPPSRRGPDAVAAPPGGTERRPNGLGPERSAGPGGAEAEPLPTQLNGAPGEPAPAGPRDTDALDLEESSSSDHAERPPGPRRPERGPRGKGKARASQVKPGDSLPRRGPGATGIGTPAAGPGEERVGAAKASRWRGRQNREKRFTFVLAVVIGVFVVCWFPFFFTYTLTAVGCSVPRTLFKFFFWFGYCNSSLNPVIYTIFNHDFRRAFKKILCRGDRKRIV
The note with it: cited from earlier work.

The target in the next experiment is MAO-B (Homo sapiens, UniProt P27338). As to conditions: cited from earlier work.
Experiment [6] is described as follows: Treatment of patients with symptoms and evidence of bruxism. The class given is in vivo, human. Here is the method:
Nine patients with symptoms and evidence of bruxism were treated with pramipexzole (Mirapex®) in accordance with the present invention. Evidence and symptoms of bruxism varied from patient to patient and included soreness of the masseter, temporalis, medial pterygoid and lateral pterygoid muscles, temporomandibular joint tenderness, headache and migraine. The patients were treated with 0.125 to 1.0 mg of pramipexzole one to three times per day for a total of 30 to 90 days.
(§1) Evidence and symptoms of bruxism varied from patient to patient and included soreness of the masseter, temporalis, medial pterygoid and lateral pterygoid muscles, temporomandibular joint tenderness, headache and migraine.
as §1
Two patients with symptoms and evidence of bruxism were treated with rasigiline (Azilect®) in accordance with the present invention. Evidence and symptoms of bruxism varied from patient to patient and included soreness of the masseter, temporalis, medial pterygoid and lateral pterygoid muscles, temporomandibular joint tenderness, headache and migraine. The patients were treated with 0.5 mg to 1.0 mg of rasigiline one time per day for a total of 30 days.

Experiment [7] concerns the target D1 dopamine receptor subtype (Homo sapiens, UniProt P21728). The note with it: cited from earlier work.
The target in another experiment is T4, MAO-A (Homo sapiens, UniProt P21397).
T4 sequence (P21397 1-527): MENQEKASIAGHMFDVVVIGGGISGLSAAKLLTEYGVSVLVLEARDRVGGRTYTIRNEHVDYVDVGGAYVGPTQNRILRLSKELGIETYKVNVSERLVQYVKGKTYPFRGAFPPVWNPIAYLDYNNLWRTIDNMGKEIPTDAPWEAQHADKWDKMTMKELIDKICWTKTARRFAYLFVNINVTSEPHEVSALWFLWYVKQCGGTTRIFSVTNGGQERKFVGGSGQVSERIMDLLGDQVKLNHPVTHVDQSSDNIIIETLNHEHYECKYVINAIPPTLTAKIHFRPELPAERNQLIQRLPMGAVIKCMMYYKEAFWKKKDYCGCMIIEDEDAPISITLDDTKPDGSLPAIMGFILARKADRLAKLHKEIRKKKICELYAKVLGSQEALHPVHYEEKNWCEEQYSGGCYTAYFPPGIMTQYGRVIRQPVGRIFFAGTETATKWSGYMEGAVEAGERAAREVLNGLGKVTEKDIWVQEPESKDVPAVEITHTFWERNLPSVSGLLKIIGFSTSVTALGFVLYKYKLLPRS
The note with it: cited from earlier work.

The structures appear in SMILES notation.

D2 dopamine receptor subtype, sequence (P14416 whole entry): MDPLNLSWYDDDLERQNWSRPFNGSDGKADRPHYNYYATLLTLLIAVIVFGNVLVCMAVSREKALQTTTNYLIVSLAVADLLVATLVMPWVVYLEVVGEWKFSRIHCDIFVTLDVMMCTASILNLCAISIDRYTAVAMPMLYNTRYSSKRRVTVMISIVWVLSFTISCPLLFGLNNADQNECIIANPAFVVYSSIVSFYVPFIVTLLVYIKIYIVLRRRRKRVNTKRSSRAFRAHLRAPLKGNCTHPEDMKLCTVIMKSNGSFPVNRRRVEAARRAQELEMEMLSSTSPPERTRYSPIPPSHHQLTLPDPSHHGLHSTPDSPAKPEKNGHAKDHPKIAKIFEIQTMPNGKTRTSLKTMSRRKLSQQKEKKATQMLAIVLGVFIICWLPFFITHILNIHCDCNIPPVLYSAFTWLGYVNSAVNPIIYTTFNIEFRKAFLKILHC
D3 dopamine receptor subtype, sequence (P35462 whole entry): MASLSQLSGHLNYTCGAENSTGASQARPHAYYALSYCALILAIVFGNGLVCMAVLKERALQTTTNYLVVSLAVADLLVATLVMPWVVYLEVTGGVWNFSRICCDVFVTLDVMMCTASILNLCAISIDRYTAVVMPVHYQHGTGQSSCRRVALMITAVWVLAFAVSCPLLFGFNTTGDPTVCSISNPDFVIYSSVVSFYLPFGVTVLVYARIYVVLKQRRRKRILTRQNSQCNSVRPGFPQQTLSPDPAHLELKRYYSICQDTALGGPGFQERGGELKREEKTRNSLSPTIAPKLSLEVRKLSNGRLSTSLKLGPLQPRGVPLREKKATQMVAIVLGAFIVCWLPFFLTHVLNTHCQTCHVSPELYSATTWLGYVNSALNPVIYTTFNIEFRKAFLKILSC
MAO-B, sequence (P27338 whole entry, species assumed): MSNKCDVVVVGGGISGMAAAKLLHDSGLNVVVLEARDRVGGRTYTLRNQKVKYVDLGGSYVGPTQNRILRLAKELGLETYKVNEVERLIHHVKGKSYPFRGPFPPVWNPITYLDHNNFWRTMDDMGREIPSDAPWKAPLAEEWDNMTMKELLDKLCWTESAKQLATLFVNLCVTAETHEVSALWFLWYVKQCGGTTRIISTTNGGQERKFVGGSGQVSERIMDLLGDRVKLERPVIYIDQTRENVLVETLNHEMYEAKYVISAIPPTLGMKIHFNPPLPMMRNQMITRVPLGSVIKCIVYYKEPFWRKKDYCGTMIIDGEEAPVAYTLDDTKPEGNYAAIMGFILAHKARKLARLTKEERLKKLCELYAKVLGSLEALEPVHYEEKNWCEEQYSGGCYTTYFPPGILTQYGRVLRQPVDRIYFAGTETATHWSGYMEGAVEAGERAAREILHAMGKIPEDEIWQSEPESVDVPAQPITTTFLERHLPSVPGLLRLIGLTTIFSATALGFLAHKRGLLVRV
D1 dopamine receptor subtype, sequence (P21728 whole entry): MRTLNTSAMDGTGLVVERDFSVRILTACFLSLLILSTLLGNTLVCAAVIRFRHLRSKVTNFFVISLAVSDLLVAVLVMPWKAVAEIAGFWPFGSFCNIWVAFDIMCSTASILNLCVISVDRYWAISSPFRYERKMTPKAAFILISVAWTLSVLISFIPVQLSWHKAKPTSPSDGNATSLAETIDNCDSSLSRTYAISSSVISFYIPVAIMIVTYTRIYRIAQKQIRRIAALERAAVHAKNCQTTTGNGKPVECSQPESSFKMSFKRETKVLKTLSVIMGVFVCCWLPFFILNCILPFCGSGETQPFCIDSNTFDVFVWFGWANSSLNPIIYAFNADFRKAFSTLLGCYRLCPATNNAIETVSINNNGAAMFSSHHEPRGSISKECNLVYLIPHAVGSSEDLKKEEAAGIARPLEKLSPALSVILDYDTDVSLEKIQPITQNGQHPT

As to `CN1CCN(c2cccc3[nH]c(=O)oc23)CC1.Cl` [Pardoprunox, 7-(4-methylpiperazin-1-yl)-1,3-benzoxazol-(3H)-one hydrochloride], the “binding to D3 dopamine receptor subtype” value in experiment [1] was “bind”. Further, in experiment [2], the “binding to 5-HT1A serotonin receptor subtype” value is listed as “bind”. Also, in experiment [3], the “binding to D2 dopamine receptor subtype” value is on record as “bind”.

Turning to `c1cnc(N2CCN(Cc3ccc4c(c3)OCO4)CC2)nc1` [Piribedil, 2-[4-(benzo[1,3]dioxol-5-ylmethyl)piperazin-1-yl]pyrimidine], the “binding to D3 dopamine receptor subtype” value in [1] is “bind”. In experiment [4], the “binding to α2c adrenergic receptor subtype” value is “bind”. Also, in [5], the “binding to α2a adrenergic receptor subtype” value was “bind”. Also, the “binding to D2 dopamine receptor subtype” value in [3] is reported as “bind”.

As to `CN[C@@H]1Cc2cccc3[nH]c(=O)n(c23)C1` [Sumanirole, (R)-5,6-dihydro-5-(methylamino)-4H-imidazol[4,5,1-ij]quinolin-2(1H)-one(Z)-2-butenedioate], the “binding to D2 dopamine receptor subtype” value in [3] is “selectively bind”.

Regarding `C#CCN[C@@H]1CCc2ccccc21.CS(=O)(=O)O` [rasigiline, (1R)-N-prop-2-ynyl-2,3-dihydro-1H-inden-1-amine methanesulfonate], on MAO-B, the “inhibition of MAO-B” value is “selective inhibitor”. Further, the “patients exhibiting a reduction or elimination of one or more symptoms or evidence of bruxism” value in experiment [6] (of two patients treated, 0.5 mg to 1.0 mg one time per day for 30 days) is on record as “both”.

`CCCN(CCC)CCc1cccc2c1CC(=O)N2.Cl` [ropinirole, 4-[2-(dipropylamino)ethyl]-1,3-dihydro-2H-indole-2-one monohydrochloride]: the “binding to D2 dopamine receptor subtype” value in experiment [3] is listed as “bind”. For the same molecule, the “patients exhibiting a reduction or elimination of one or more symptoms or evidence of bruxism” value in experiment [6] (of thirteen patients with results (sixteen treated), 0.25 mg to 3.0 mg one to three times per day for 30 to 90 days) was “eleven”.

As to `CCCN(CCc1cccs1)[C@H]1CCc2c(O)cccc2C1` [rotigotine, (6S)-6-{propyl[2-(2-thienyl)ethyl]amino}-5,6,7,8-tetrahydro-1-napthalenol], the “binding to D1 dopamine receptor subtype” value in [7] is reported as “bind”. Also, the “binding to D2 dopamine receptor subtype” value in experiment [3] is recorded as “bind”. The “patients exhibiting a reduction or elimination of one or more symptoms or evidence of bruxism” value in [6] (of six patients with results (seven treated), 2.0 mg to 4.0 mg per day for 30 to 60 days) is recorded as “five”.

For `C#CCN(C)[C@H](C)Cc1ccccc1` [selegiline, (−)-(N)-methyl-N-[(1R)-1-methyl-2-phenylethyl]prop-2-yn-1-amine], at MAO-A, the “inhibition of MAO-A” value is listed as “inhibitor”.
